Laboratory results: patent US20260355189A1, “SMALL MOLECULE INHIBITORS OF NEUTROPHIL EXOCYTOSIS AND INFLAMMATION” (THE SCRIPPS RESEARCH INSTITUTE, priority 2022, published 2026)

Experiments:
mouse neutrophils = assay: Isoluminol-dependent chemiluminescence assay of MPO secretion in purified mouse neutrophils; assay type: cell-based; conditions: 10 μM inhibitor, PMA stimulated, FIG. 3B
From the text: FIGS. 3A-C illustrate the effect of Inhibitors C1, C2, C4, C5, and C6 and comparator Nexinhib 20 (shown as “C20”) on MPO secretion of mouse neutrophils. FIG. 3A is a schematic representation of a cell-based secondary screening assay used to analyze the potency the potency of Rab27a-JFC1 inhibitors for their ability to decrease exocytosis of intact human neutrophil. This cell-based assay measures the secretion of myeloperoxidase (MPO) by human neutrophils using cell-impermeant isoluminol-dependent chemiluminescence in the absence of exogenous peroxidases.
(§1) Human neutrophils were isolated from normal donor's blood by Ficoll density centrifugation, as described previously (23). Murine bone marrow-derived neutrophils were isolated using a Percoll gradient fractionation system as described (24). A three-layer Percoll gradient was used (52%, 64%, and 72%), and neutrophils were isolated from the 64-72% interface, washed, and used in the assays.
Extracellular MPO-dependent reactive oxygen species (ROS) production was measured using the chemiluminescence reactions mediated by isoluminol (25). To this end, 3×10^5 neutrophils were resuspended in serum-free RPMI 1640 medium in the presence of cell-impermeant isoluminol, and reactions were carried out in the absence of exogenous peroxidase. Neutrophils were incubated in the presence of compounds or DMSO (0.5%) pin-tooled into 384-well plates in a […]. Control experiments were run in parallel in the presence of [COMPOUND LEFT OUT] (0.5 mM) to inhibit endogenous myeloperoxidase. After addition of stimuli (phorbol 12-myristate 13-acetate, “PMA”) or vehicle using liquid handling devices (BioRaptor FRD, Beckman Coulter), MPO-dependent chemiluminescence was continuously monitored for 30 min at 37 °C using a 2104 EnVision multilabel plate reader. For secretion assays, 0.5×10^6 neutrophils were incubated in RPMI 1640 medium in polystyrene 96-well plates in the presence of Inhibitors or dimethyl sulfoxide (DMSO) control for 1 hour and stimulated for the indicated times at 37 °C with PMA (0.1 μg/ml), GM-CSF (10 ng/ml), and fMLP (1 μM) or DMSO control. The cells were spun down, and supernatants were transferred to clean plates using plate filters to avoid contamination from cellular secretory proteins. MPO was measured by ELISA (R&D Systems).
Results: FIG. 3B is a graph showing the effect of Inhibitors C1, C2, C4, C5, and C6 on secreted MPO-dependent reaction using the isoluminol-dependent chemiluminescence assay in highly purified mouse neutrophils. On the graph of FIG. 3B, the pre-fix “NS” means “no stimuli” where the cells were treated with 10 μM C1, C2, C4, C5, C6, and C20 alone without any exocytosis stimuli. The pre-fix “PMA” means the cells were stimulated with PMA to secrete MPO and were treated with 10 μM of the designated Inhibitor. […] Mean % inhibition: C1, 76.74; C2, 59.85; C4, 70.9; C6, 62.4; C20, 99.22.

[1] = tested on: human neutrophils (azurophilic granule marker CD63); assay: Flow cytometry of azurophilic granule mobilization (CD63) in human neutrophils; assay type: cell-based; conditions: Homo sapiens, Neutrophil, 1 hour, GM-CSF + fMLP, N=15 donors, FIG. 4, read-out: Mean % inhibition of CD63 up-regulation
From the text: as §1
(§2) Method: The up-regulation of granule membrane-associated neutrophil markers at the plasma membrane was analyzed by flow cytometry. In these studies, flow cytometry analysis was performed by resuspension of 1×10^6 human neutrophils in phenol red-free RPMI 1640 medium, treated with a 10 μM solution of Inhibitors C1, C2, C4, C5, and C6 and Nexinhib 20 (C20) or DMSO control for 1 hour, and stimulated with physiological agonists GM-CSF (10 ng/ml) for 30 min followed by the addition of fMLP (1 μM) to induce degranulation or left untreated at 37 °C (non-stimulated, NS). The reactions were stopped by transferring the samples to ice and immediately spinning down the cells to initiate blocking and staining. To analyze the plasma membrane expression of plasma membrane markers, the cells were blocked in ice-cold PBS containing 1% BSA and stained with phycoerythrin (PE)-, FITC-, or Alexa647-conjugated anti-human CD63, CD66b, MMP9, and CD11b antibodies that detect extracellular epitopes of these markers. The cells were then washed and fixed in 1% paraformaldehyde in PBS. Samples were analyzed using a NovoCyte flow cytometer, and the data were processed using FlowJo software.

[2] = tested on: human neutrophils (Gelatinase granule cargo MMP9); assay: Flow cytometry of gelatinase granule exocytosis (MMP9) in human neutrophils; assay type: cell-based; conditions: 1 hour, GM-CSF + fMLP
From the text: as §1, §2

[3] = tested on: human neutrophils (secretory vesicle marker CD11b); assay: Flow cytometry of secretory vesicle mobilization (CD11b) in human neutrophils; assay type: cell-based; conditions: 10 μM, 1 hour; GM-CSF + fMLP; relative to DMSO; N=15 donors; FIG. 7
From the text: as §1, §2

LPS-challenged mice = assay: LPS-induced systemic inflammation (endotoxemia/sepsis), plasma cytokines; assay type: in vivo, mouse; conditions: for IL-10 levels: FIG. 10B
Description: FIG. 10A-B. Treatment with compound NEIa-C6 inhibits pro-inflammatory cytokine production in a model of sepsis. We tested the ability of C6 to protect mice from LPS-induced systemic inflammation. In these experiments, mice (n=4 independent mice per group) receive NEIa-C6 (30 mg/Kg) or vehicle by a single i.p. injection and two hours later, the animals are challenged with a single i.p. injection of lipopolysaccharide (LPS, 8 mg/Kg) or PBS (vehicle for LPS). Four hours after LPS/PBS insult, blood is collected and cytokines are analyzed in plasma using multiplex technology.
To test whether Nexinhibs, and in particular NEIa-C6, have additional protective properties in inflammation models relevant to human disease, independent of inflammasome activation, we tested the ability of C6 to protect mice from LPS-induced systemic inflammation. In these experiments, mice received NEIa-C6 (30 mg/Kg) or vehicle by a single i.p. injection and two hours later, the animals are challenged with a single i.p. injection of lipopolysaccharide (LPS, 8 mg/Kg), an important outer membrane component of gram-negative bacteria. In this model, endotoxemia insult induces the production of pro-inflammatory cytokines. To test the possible anti-inflammatory effect of NEIa-C6, we comparatively analyzed cytokine levels in plasma of LPS-insulted and control mice using multiplex technology.

[4] = 30 mg/Kg i.p., LPS 8 mg/Kg, plasma, FIG. 10A

CCN(CC)CCNC(=O)/C(=C/c1cccc([N+](=O)[O-])c1)n1cncn1 [154 (C6)]
Inhibition of exocytosis vs DMSO control (mouse neutrophils): significant inhibition of exocytosis | inhibition at 10 µM (mouse neutrophils; Mus musculus, Neutrophil): 62.4% | inhibition at 10 µM [1]: 58.1% | Inhibition in MMP9 experiment (words; printed as CD66b up-regulation) ([2]; 10 μM, relative to DMSO, FIG. 6): marked inhibition of CD66b up-regulation | inhibition at 10 µM ([2]; Homo sapiens, Neutrophil, N=12 donors, FIG. 6, read-out: % Inhibition of MMP9 up-regulation): 54.4% | Release of CD11b+ vesicles / CD11b upregulation [3]: unaffected | Production of pro-inflammatory cytokines (LPS-challenged mice; 30 mg/Kg i.p. 2 h before LPS 8 mg/Kg, plasma 4 h after LPS, FIG. 10A): inhibit the production of the indicated pro-inflammatory cytokines | GM-CSF production (LPS-challenged mice; [4]): significantly decreases | IL-1β production (LPS-challenged mice; [4]): significantly decreases | IL-17 levels (LPS-challenged mice; [4]): decreased | MIP-2 levels (LPS-challenged mice; [4]): decreased | TL-3 levels (LPS-challenged mice; [4]): decreases | IL-10 levels (LPS-challenged mice; 30 mg/Kg i.p., LPS 8 mg/Kg, plasma, listed as C6): increases the production of IL-10 | IL-10 levels (LPS-challenged mice; 30 mg/Kg i.p., LPS 8 mg/Kg, plasma, listed as NEIa-C6): increased the levels of IL-10
